“And” between values parts separate entries of the source, which are not always exact repeats. Equal entries are not always repeated.
System: monocyte-derived dendritic cells (moDCs)
Assay: Multiplex xMAP cytokine levels, moDCs alone stimulated with LL-37
Assay type: cell-based, human
Conditions: 1 µM LL-37, 24 h
Description: Peripheral blood mononuclear cells (PBMCs) from a healthy donor were purchased from the American Type Culture Collection (ATCC PCS-800-011). Blood monocytes were isolated from PBMCs by plastic adhesion. Mature monocyte-derived dendritic cells (moDCs) were generated in vitro from peripheral blood monocytes, according to Nair et al.. Briefly, monocytes were cultured in a humidified CO2-incubator (5% CO2, 37 °C) in the complete RPMI-1640 medium (Gibco) with 10% FBS, antibiotics, and supplemented with a cytokine cocktail containing 500 U/mL rhIL-4 and 800 U/mL rhGM-CSF (both Sci-Store, Moscow, Russia). On the third day, the medium was replaced by the same fresh medium with FBS, antibiotics, and the cytokine cocktail. Induction of maturation of the immature monocyte-derived dendritic cells was performed on the 5th day by replacing the medium with the complete RPMI-1640 medium (Gibco) with 10% FBS and antibiotics, supplemented with a cytokine cocktail containing 500 U/mL rhIL-4, 800 U/mL rhGM-CSF (both Sci-Store, Moscow, Russia), and 100 U/mL rhTNF-α (Sigma-Aldrich), and subjected to subsequent incubation of the culture for 4 more days.
Primary blood monocytes, moDCs, and NKT cells were seeded in 600 µL of complete RPMI-1640 with 10% Human AB serum (Capricorn Scientific, Ebsdorfergrund, Germany) and supplemented with 1X antibiotic–antimycotic solution into the wells of 24-well plates at a density of 3–7 × 10^5 cells/well 24 h before the experiment. Then, 24 h later, the medium in each well was replaced by the same medium with 1 µM of LL-37 for the sample wells or fresh medium alone for the control wells, and the permeable inserts with the Caco-2 monolayer with TEER > 400 Ω × cm^2, containing 400 μL of the complete medium in their apical chamber, were immediately placed into the appropriate wells. Also, inserts with the Caco-2 monolayer were placed in cell-free wells of 24-well plates in the same complete RPMI-1640 medium with or without 1 µM of LL-37 as controls. Cells were kept in a CO2-incubator (5% CO2, 37 °C) for another 24 h. Then, culture medium from each well was collected, centrifuged, and frozen at −70 °C.
To quantitatively evaluate a broad spectrum of analytes secreted by human cell cultures at the protein level, multiplex xMAP technology was used. The chosen panel (cat. #HCYTA-60K-PX48, Merck, Darmstadt, Germany) included 48 different magnetic beads with primary antibodies to the following cytokines, chemokines, and growth factors: CCL11 (Eotaxin-1), Flt-3 ligand, CX3CL1 (Fractalkine), sCD40L, FGF-2, EGF, GROα, GM-CSF, G-CSF, IL-1RA, IL-1α, IL-1β, IL-2, IL-3, IL-4, IL-5, IL-6, IL-7, CXCL8 (IL-8), IL-9, IL-10, IL-12p40, IL-12p70, IL-13, IL-15, IL-17A (CTLA8), IL-17E (IL-25), IL-17F, IL-18, IL-22, IL-27, IFNγ, IFNα2, CXCL10 (IP-10), CCL2 (MCP-1), CCL7 (MCP-3), CCL22 (MDC), CXCL9 (MIG), CCL3 (MIP-1α), CCL4 (MIP-1β), CCL5 (RANTES), M-CSF, PDGF-AA, PDGF-AB/BB, TNFα, TNFβ, TGFα, and VEGF-A. The assay was performed in accordance with the manufacturer’s instructions with overnight incubation of the samples with primary antibodies, and the plate was read on a MAGPIX System (Merck) using the xPONENT 4.2 software (Merck). The acquired fluorescence data were analyzed by the MILLIPLEX Analyst v5.1 software (Merck), which realized an advanced curve-fitting algorithm. Levels of the analytes in control and experimental samples were compared with an unpaired two-sample t-test using GraphPad Prism v.8.0.1 (GraphPad Software, Inc., San Diego, CA, USA). The p-values ≤ 0.05 were considered significant.

Substance: LL-37: the only human cathelicidin, host defense antimicrobial peptide of 37 a.a. residues, produced by solid-phase peptide synthesis
- FLT-3L level (n=2, control 0.57): 0.51 pg/mL
- IL-2 level (n=2, control 0.91): 0.91 pg/mL
- IL-4 level (n=2, control 1.14): 1.31 pg/mL
- TNFb level (n=2, control 1.49): 1.3 pg/mL
- IL-3 level (n=2, control 1.55): 0.91 pg/mL
- IL-18 level (n=2, control 1.61): 0.63 pg/mL
- VEGFa level (n=2, control 2.82): 4.61 pg/mL
- IL-15 level (n=2, control 4.12): 4.36 pg/mL
- IL-5 level (n=2, control 4.63): 3.23 pg/mL
- IFNg level (n=2, control 5.89): 5.02 pg/mL
- EGF level (n=2, control 7.65): 6.75 pg/mL
- IL-9 level (n=2, control 8.22): 7.84 pg/mL
- IL-1b level (n=2, control 9.37): 7 pg/mL
- IFNa2 level (n=2, control 10.16): 11.65 pg/mL
- IL-1RA level (n=2, control 11.72): 11.72 pg/mL
- GM-CSF level (n=2, control 13.02): 10.06 pg/mL
- IL-22 level (n=2, control 13.22): 11.11 pg/mL
- G-CSF level (n=2, control 20.3): 13.54 pg/mL
- PDGF-AA level (n=2, control 24.8): 25.69 pg/mL
- TGF-a level (n=2, control 25.07): 20.52 pg/mL
- IL-6 level (n=2, control 27.8): 30.65 pg/mL
- Fractalkine level (n=2, control 28.72): 25.92 pg/mL
- IL-13 level (n=2, control 36.28): 29.87 pg/mL
- TNFa level (n=2, control 40.81): 40.03 pg/mL
- FGF-2 level (n=2, control 48.6): 47.27 pg/mL
- GROa level (n=2, control 51.39): 53.94 pg/mL
- IL-27 level (n=2, control 55.75): 59.83 pg/mL
- IL-12 (p40) level (n=2, control 61.22): 61.22 pg/mL
- IP-10 level (n=2, control 66.42): 57.64 pg/mL
- PDGF-AB/BB level (n=2, control 72.4): 70.07 pg/mL
- IL-10 level (n=2, control 89.23, p = 0.0058): 62 pg/mL and 62.12 pg/mL
- sCD40L level (n=2, control 98.84): 95.47 pg/mL
- M-GSF level (n=2, control 200.96): 185.65 pg/mL
- RANTES level (n=2, control 423.03): 417.4 pg/mL
- MCP-3 level (n=2, control 573.83): 545.69 pg/mL
- MIP-1b level (n=2, control 2042): 2065 pg/mL
- MIP-1a level (n=2, control 2533): 2368 pg/mL
- MCP-1 level (n=2, control 3176): 2573 pg/mL
- IL-8 level (n=2, control 4102): 4051 pg/mL
- MIG level (n=2, control 27057): 23618 pg/mL
- IL-7 level (n=2, control <0.30): <0.30↓ pg/ml
- IL-17A level (n=2, control <0.70): <0.70↓ pg/ml
- IL-1a level (n=2, control <1.30): <1.30↓ pg/ml
- IL-12 (p70) level (n=2, control <1.71): <1.71↓ pg/ml
- Eotaxin level (n=2, control <2.91): <2.91↓ pg/ml
- IL-17F level (n=2, control <12.19): <12.19↓ pg/ml
- IL-17E/IL-25 level (n=2, control <19.43): <19.43↓ pg/ml
- MDC level (n=2, control >14590): >14590↑ pg/ml
